Tests used:
Assay in all cases: KINOMEscan competition binding
Conditions in all cases: compound 10.0 µM
PLK4 (human) = PLK4 (human) (UniProt O00444)
EIF2AK2 (human) = EIF2AK2 (human) (UniProt P19525)
LATS2 (human) = LATS2 (human) (UniProt Q9NRM7)
MAPK14 (human) = MAPK14 (human) (UniProt Q16539)
CAMK2G (human) = CAMK2G (human) (UniProt Q13555)
PAK7 (human) = PAK7 (human) (UniProt Q9P286)
ANKK1 (human) = ANKK1 (human) (UniProt Q8NFD2)
MAPK9 (human) = MAPK9 (human) (UniProt P45984)
SRPK1 (human) = SRPK1 (human) (UniProt Q96SB4)
BMPR1B (human) = BMPR1B (human) (UniProt O00238)
ULK3 (human) = ULK3 (human) (UniProt Q6PHR2)
RPS6KA2 KD2 (human) = RPS6KA2 KD2 (human) (UniProt Q15349)
CDK16 (human) = CDK16 (human) (UniProt Q00536)
CAMK2A (human) = CAMK2A (human) (UniProt Q9UQM7)
ZAP70 (human) = ZAP70 (human) (UniProt P43403)
GAK (human) = GAK (human) (UniProt O14976)
TLK1 (human) = TLK1 (human) (UniProt Q9UKI8)
TNIK (human) = TNIK (human) (UniProt Q9UKE5)
STK38L (human) = STK38L (human) (UniProt Q9Y2H1)
TAOK3 (human) = TAOK3 (human) (UniProt Q9H2K8)
TLK2 (human) = TLK2 (human) (UniProt Q86UE8)
PIM1 (human) = PIM1 (human) (UniProt P11309)
MAP2K6 (human) = MAP2K6 (human) (UniProt P52564)
MAPK10 (human) = MAPK10 (human) (UniProt P53779)
RPS6KA1 KD2 (human) = RPS6KA1 KD2 (human) (UniProt Q15418)
CSNK1G1 (human) = CSNK1G1 (human) (UniProt Q9HCP0)
MINK1 (human) = MINK1 (human) (UniProt Q8N4C8)
PIK3CB (human) = PIK3CB (human) (UniProt P42338)
ULK1 (human) = ULK1 (human) (UniProt O75385)
MAPK8 (human) = MAPK8 (human) (UniProt P45983)
RPS6KA6 KD2 (human) = RPS6KA6 KD2 (human) (UniProt Q9UK32)
STK25 (human) = STK25 (human) (UniProt O00506)
AAK1 (human) = AAK1 (human) (UniProt Q2M2I8)
PIM3 (human) = PIM3 (human) (UniProt Q86V86)
DAPK2 (human) = DAPK2 (human) (UniProt Q9UIK4)
HIPK1 (human) = HIPK1 (human) (UniProt Q86Z02)
PIM2 (human) = PIM2 (human) (UniProt Q9P1W9)
[1] = tested on: PIK3CA (human), P42336 [E545K]
CSNK2A2 (human) = CSNK2A2 (human) (UniProt P19784)
PIK3CG (human) = PIK3CG (human) (UniProt P48736)
CDK11A (human) = CDK11A (human) (UniProt Q9UQ88)
AKT2 (human) = AKT2 (human) (UniProt P31751)
DCLK1 (human) = DCLK1 (human) (UniProt O15075)
TSSK1B (human) = TSSK1B (human) (UniProt Q9BXA7)
ULK2 (human) = ULK2 (human) (UniProt Q8IYT8)
RPS6KA4 KD2 (human) = RPS6KA4 KD2 (human) (UniProt O75676)
PLK3 (human) = PLK3 (human) (UniProt Q9H4B4)
DAPK3 (human) = DAPK3 (human) (UniProt O43293)
CHEK1 (human) = CHEK1 (human) (UniProt O14757)
DCLK2 (human) = DCLK2 (human) (UniProt Q8N568)
PRKD2 (human) = PRKD2 (human) (UniProt Q9BZL6)
STK33 (human) = STK33 (human) (UniProt Q9BYT3)
[2] = tested on: EIF2AK4 KD2 (human), Q9P2K8 [S808G]
PRKD1 (human) = PRKD1 (human) (UniProt Q15139)
MAP2K3 (human) = MAP2K3 (human) (UniProt P46734)
TTK (human) = TTK (human) (UniProt P33981)
RIOK2 (human) = RIOK2 (human) (UniProt Q9BVS4)
PLK1 (human) = PLK1 (human) (UniProt P53350)

MINK1 (human), sequence (Q8N4C8 whole entry, looked up): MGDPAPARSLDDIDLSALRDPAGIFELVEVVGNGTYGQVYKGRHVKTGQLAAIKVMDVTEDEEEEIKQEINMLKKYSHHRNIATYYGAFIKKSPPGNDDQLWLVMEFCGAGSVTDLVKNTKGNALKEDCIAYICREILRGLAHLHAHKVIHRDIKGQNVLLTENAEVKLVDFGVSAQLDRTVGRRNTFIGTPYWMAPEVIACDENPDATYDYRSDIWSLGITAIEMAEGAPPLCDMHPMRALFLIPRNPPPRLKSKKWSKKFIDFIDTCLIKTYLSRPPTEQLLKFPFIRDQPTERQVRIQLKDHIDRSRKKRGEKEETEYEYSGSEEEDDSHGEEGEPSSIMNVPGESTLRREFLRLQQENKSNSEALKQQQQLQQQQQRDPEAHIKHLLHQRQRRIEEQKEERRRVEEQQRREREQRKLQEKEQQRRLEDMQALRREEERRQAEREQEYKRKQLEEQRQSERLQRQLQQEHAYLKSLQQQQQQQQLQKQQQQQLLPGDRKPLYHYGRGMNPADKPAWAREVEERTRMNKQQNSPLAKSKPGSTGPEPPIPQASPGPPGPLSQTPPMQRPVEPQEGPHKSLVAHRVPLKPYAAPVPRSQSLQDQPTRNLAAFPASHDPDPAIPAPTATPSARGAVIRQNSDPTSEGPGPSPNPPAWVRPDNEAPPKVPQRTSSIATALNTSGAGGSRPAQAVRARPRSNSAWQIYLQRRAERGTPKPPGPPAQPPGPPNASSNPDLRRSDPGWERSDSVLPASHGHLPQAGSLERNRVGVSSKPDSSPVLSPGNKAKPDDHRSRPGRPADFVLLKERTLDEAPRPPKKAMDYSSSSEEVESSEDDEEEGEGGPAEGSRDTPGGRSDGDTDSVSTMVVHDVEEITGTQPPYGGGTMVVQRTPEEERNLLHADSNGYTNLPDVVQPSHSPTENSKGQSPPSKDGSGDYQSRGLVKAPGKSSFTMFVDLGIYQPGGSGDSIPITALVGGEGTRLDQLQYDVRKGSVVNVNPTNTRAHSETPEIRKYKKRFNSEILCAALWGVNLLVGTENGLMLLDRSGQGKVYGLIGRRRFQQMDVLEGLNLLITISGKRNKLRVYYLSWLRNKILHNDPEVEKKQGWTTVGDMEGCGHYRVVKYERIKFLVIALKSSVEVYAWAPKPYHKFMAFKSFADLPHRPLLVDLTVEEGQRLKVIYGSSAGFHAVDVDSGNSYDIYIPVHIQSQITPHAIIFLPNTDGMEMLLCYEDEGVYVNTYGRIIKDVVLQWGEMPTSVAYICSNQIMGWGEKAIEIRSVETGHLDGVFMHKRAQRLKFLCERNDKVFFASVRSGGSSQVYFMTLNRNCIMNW
RPS6KA1 KD2 (human), sequence (Q15418 whole entry, looked up): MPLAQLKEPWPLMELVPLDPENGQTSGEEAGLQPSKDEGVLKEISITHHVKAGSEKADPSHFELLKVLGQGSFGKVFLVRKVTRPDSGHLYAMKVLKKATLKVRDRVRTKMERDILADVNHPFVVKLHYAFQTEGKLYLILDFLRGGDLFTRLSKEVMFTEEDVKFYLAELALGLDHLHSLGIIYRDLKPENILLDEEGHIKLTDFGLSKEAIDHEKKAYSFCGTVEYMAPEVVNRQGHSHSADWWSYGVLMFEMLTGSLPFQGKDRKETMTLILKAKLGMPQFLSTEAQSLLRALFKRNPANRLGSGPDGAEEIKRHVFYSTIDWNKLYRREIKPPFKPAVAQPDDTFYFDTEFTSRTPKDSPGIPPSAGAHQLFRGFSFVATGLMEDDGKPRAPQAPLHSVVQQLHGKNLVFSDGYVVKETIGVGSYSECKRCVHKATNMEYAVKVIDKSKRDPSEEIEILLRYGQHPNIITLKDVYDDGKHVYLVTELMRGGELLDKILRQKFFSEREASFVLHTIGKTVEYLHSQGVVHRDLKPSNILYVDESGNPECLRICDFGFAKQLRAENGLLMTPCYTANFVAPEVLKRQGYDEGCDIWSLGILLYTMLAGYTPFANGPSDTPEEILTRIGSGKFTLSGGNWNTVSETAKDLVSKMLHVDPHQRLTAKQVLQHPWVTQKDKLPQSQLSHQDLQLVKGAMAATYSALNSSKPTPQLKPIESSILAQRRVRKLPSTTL
RPS6KA2 KD2 (human), sequence (Q15349 whole entry, looked up): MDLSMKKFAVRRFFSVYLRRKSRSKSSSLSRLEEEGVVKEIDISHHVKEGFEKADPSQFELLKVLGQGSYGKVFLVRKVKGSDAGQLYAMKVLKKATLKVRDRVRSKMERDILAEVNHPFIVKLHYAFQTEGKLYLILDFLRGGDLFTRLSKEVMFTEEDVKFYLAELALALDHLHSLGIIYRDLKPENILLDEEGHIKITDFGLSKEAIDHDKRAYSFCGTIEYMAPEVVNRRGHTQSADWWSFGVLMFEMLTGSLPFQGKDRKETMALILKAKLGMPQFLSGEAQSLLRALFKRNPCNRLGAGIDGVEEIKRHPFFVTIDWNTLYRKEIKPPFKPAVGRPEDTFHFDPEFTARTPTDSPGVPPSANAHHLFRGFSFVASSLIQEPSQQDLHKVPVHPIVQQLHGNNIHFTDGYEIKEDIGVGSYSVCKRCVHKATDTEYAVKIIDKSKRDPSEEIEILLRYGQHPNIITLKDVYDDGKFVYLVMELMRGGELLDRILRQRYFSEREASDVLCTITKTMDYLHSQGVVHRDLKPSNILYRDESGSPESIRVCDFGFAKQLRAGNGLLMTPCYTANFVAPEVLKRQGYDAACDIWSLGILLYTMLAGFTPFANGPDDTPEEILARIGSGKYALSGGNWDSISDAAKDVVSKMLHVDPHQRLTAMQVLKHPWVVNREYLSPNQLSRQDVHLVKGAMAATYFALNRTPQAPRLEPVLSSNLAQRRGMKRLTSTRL
GAK (human), sequence (O14976 whole entry, looked up): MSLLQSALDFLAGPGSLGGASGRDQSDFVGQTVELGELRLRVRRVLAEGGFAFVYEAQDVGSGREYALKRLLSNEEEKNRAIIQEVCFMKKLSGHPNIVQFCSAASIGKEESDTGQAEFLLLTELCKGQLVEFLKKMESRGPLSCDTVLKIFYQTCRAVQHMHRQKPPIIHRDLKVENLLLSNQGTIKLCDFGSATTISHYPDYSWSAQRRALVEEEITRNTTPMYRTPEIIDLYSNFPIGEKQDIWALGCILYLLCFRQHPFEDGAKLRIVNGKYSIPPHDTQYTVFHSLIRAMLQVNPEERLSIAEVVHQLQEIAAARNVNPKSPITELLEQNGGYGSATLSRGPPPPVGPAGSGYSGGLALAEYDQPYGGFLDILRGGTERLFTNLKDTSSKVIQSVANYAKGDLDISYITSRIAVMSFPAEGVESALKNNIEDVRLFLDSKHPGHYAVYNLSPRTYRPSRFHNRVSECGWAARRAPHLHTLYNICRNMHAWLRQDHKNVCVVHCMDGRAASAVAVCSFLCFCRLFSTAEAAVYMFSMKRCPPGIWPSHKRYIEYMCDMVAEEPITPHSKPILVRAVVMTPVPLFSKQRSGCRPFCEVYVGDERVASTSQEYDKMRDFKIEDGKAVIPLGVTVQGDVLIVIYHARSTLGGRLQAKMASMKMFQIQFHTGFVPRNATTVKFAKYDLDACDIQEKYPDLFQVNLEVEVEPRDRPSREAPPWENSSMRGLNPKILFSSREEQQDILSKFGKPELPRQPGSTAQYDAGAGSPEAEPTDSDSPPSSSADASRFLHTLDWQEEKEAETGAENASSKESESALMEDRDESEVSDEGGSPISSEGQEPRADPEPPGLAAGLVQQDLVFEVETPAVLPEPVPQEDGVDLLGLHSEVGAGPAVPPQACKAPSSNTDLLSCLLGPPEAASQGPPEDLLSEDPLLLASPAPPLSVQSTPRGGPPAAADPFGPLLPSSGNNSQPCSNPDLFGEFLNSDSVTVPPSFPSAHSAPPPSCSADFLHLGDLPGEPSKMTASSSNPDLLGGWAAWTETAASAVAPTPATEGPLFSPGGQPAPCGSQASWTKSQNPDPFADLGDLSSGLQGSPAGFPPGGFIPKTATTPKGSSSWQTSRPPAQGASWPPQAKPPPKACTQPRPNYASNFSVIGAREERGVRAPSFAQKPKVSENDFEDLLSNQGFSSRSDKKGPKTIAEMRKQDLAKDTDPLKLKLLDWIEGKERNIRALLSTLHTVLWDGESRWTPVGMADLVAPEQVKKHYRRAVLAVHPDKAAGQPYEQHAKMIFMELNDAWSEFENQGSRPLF
ULK3 (human), sequence (Q6PHR2 whole entry, looked up): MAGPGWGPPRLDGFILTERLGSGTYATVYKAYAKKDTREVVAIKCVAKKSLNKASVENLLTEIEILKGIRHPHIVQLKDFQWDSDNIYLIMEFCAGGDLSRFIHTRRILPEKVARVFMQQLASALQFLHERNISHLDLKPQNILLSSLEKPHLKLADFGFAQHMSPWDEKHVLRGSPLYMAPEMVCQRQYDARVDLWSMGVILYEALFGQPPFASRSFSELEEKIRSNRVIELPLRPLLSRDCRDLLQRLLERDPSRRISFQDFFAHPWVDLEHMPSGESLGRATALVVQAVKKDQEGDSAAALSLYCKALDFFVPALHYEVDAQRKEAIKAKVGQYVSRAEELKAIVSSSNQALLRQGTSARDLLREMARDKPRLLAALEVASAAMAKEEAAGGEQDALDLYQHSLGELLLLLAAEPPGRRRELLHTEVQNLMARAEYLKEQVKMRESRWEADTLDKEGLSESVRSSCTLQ
PIM1 (human), sequence (P11309 whole entry, looked up): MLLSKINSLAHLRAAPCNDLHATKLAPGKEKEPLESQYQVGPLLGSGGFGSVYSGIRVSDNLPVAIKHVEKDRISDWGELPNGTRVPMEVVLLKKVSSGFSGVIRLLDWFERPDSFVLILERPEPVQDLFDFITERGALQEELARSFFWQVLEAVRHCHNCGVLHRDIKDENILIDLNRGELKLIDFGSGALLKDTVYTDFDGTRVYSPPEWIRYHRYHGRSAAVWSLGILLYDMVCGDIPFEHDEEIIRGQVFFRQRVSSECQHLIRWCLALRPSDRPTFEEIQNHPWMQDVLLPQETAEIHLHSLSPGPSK

NS(=O)(=O)c1ccc(-c2ccc(/C=C3\SC(=S)N(CC(=O)O)C3=O)o2)cc1
kinase still bound, per cent of control (PLK4 (human)): 0.35% | kinase still bound, per cent of control (EIF2AK2 (human)): 32% | kinase still bound, per cent of control (LATS2 (human)): 25% | kinase still bound, per cent of control (MAPK14 (human)): 20% | kinase still bound, per cent of control (CAMK2G (human)): 33% | kinase still bound, per cent of control (PAK7 (human)): 22% | kinase still bound, per cent of control (ANKK1 (human)): 31% | kinase still bound, per cent of control (MAPK9 (human)): 21% | kinase still bound, per cent of control (SRPK1 (human)): 22% | kinase still bound, per cent of control (BMPR1B (human)): 27% | kinase still bound, per cent of control (ULK3 (human)): 26% | kinase still bound, per cent of control (RPS6KA2 KD2 (human)): 22% | kinase still bound, per cent of control (CDK16 (human)): 0.35% | kinase still bound, per cent of control (CAMK2A (human)): 34% | kinase still bound, per cent of control (ZAP70 (human)): 21% | kinase still bound, per cent of control (GAK (human)): 20% | kinase still bound, per cent of control (TLK1 (human)): 22% | kinase still bound, per cent of control (TNIK (human)): 32% | kinase still bound, per cent of control (STK38L (human)): 19% | kinase still bound, per cent of control (TAOK3 (human)): 34% | kinase still bound, per cent of control (TLK2 (human)): 25% | kinase still bound, per cent of control (PIM1 (human)): 33% | kinase still bound, per cent of control (MAP2K6 (human)): 32% | kinase still bound, per cent of control (MAPK10 (human)): 30% | kinase still bound, per cent of control (RPS6KA1 KD2 (human)): 29% | kinase still bound, per cent of control (CSNK1G1 (human)): 27% | kinase still bound, per cent of control (MINK1 (human)): 23% | kinase still bound, per cent of control (PIK3CB (human)): 29% | kinase still bound, per cent of control (ULK1 (human)): 29% | kinase still bound, per cent of control (MAPK8 (human)): 22% | kinase still bound, per cent of control (RPS6KA6 KD2 (human)): 32% | kinase still bound, per cent of control (STK25 (human)): 34% | kinase still bound, per cent of control (AAK1 (human)): 34%

NS(=O)(=O)c1ccc(-c2cccc(/C=C3\SC(=O)NC3=O)c2)cc1
kinase still bound, per cent of control (PIM3 (human)): 5.1% | kinase still bound, per cent of control (DAPK2 (human)): 26% | kinase still bound, per cent of control (HIPK1 (human)): 2.2% | kinase still bound, per cent of control (ULK3 (human)): 18% | kinase still bound, per cent of control (PIM2 (human)): 1.4% | kinase still bound, per cent of control [1]: 16% | kinase still bound, per cent of control (CSNK2A2 (human)): 4.2% | kinase still bound, per cent of control (PIM1 (human)): 4.2% | kinase still bound, per cent of control (MINK1 (human)): 30% | kinase still bound, per cent of control (PIK3CG (human)): 10%

O=C1NC(=O)C(=Cc2ccc(-c3ccc(F)cc3O)o2)C(=O)N1
kinase still bound, per cent of control (CDK11A (human)): 31% | kinase still bound, per cent of control (AKT2 (human)): 17%

COc1cc(N2CCN(C)CC2)ccc1Nc1ncc2c(n1)N1CCC[C@H]1CC(=O)N2C
kinase still bound, per cent of control (DCLK1 (human)): 0.75% | kinase still bound, per cent of control (TSSK1B (human)): 23% | kinase still bound, per cent of control (ULK2 (human)): 19% | kinase still bound, per cent of control (RPS6KA4 KD2 (human)): 33% | kinase still bound, per cent of control (PLK3 (human)): 3.6% | kinase still bound, per cent of control (DAPK3 (human)): 28% | kinase still bound, per cent of control (CHEK1 (human)): 16% | kinase still bound, per cent of control (DCLK2 (human)): 3.6% | kinase still bound, per cent of control (PRKD2 (human)): 2.6% | kinase still bound, per cent of control (RPS6KA2 KD2 (human)): 9.4% | kinase still bound, per cent of control (GAK (human)): 6.2% | kinase still bound, per cent of control (STK33 (human)): 5% | kinase still bound, per cent of control (RPS6KA1 KD2 (human)): 28% | kinase still bound, per cent of control [2]: 18% | kinase still bound, per cent of control (PRKD1 (human)): 15% | kinase still bound, per cent of control (RPS6KA6 KD2 (human)): 8.6% | kinase still bound, per cent of control (MAP2K3 (human)): 0.4% | kinase still bound, per cent of control (TTK (human)): 2.6% | kinase still bound, per cent of control (RIOK2 (human)): 0.2% | kinase still bound, per cent of control (PLK1 (human)): 2.4%

Source: the kinase profiling compilation of Christmann-Franck et al. (2016)
